Test results reported in US20150223463A1, “SPIROCYCLIC ISOXAZOLINE DERIVATIVES FOR TREATMENT OF SEA LICE” (Zoetis LLC, priority 2012, published 2015).

System: Lepeophtheirus salmonis (sea lice)
Experiment: Sea lice bioassay, 24 hours exposure to test compound
Format: in vivo
Details: predominantly pre-adult and adult stage, generally chemical resistant strain

Substance: Emamectin
- Adult Females (EC50) (adult female sea lice): 65 ppb
- Adult Males (EC50) (adult male sea lice): 202 ppb
